Measured values taken from ChEMBL document CHEMBL5715943, “Design and synthesis of potent and selective azaindole-based Rho kinase (ROCK) inhibitors” (ChemMedChem, 2008).

Key:
[1] = target: Rho-associated protein kinase 2 (Homo sapiens, UniProt O75116); assay: Inhibition of His-tagged human ROCK2 expressed in Sf9 cells pre-incubated for 10 mins before S6 peptide substrate addition in presence of [33P]ATP and measured after 20 mins by scintillation counting
Saphenous artery = assay: Vasorelaxant activity in isolated Chinchilla rabbit saphenous artery vessels assessed as inhibition of phenylephrine-mediated contraction; type: functional, tissue-based; conditions: Oryctolagus cuniculus
[2] = buffer
Rattus norvegicus [3] = assay: Anti-hypertensive effect in anaesthetized Wistar rat assessed as blood-pressure-lowering effect at 0.3 mg/kg, iv relative to control; type: functional
[4] = target: Myosin light chain kinase, smooth muscle (Homo sapiens, UniProt Q15746); assay: Inhibition of MYLK (unknown origin)
[5] = target: T1, Tyrosine-protein kinase receptor UFO (Homo sapiens, UniProt P30530); assay: Inhibition of human AXL
T1 sequence (P30530 whole entry): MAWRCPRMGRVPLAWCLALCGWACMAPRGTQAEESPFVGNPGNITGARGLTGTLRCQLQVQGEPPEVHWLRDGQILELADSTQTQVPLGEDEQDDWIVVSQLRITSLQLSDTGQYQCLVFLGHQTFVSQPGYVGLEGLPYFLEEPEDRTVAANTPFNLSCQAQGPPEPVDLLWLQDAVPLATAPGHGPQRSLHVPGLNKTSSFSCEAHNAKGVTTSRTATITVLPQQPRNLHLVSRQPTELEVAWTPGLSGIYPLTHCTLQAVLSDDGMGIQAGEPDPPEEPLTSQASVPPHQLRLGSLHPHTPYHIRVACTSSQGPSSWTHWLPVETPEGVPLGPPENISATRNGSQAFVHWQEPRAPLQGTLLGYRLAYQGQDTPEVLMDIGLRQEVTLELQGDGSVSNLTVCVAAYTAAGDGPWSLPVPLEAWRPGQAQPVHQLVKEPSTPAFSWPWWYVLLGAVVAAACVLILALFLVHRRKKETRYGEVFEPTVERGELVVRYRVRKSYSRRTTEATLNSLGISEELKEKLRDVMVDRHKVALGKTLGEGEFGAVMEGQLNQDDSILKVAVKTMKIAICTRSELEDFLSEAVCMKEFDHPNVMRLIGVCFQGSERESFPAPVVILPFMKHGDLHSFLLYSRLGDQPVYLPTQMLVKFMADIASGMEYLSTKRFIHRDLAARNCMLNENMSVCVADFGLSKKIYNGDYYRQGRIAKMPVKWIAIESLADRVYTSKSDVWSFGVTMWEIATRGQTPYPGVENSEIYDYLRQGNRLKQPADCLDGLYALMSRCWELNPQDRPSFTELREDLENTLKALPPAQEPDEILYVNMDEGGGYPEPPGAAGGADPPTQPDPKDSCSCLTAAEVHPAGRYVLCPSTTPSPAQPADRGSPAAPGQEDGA

[6] = target: RAF proto-oncogene serine/threonine-protein kinase (Homo sapiens, UniProt P04049); assay: Inhibition of human c-RAF
[7] = target: Voltage-gated L-type calcium channel (Homo sapiens, UniProt Q13936+Q13698+Q01668+O60840); assay: Inhibition of L-type calcium channel (unknown origin); type: protein assay
[8] = Inhibition of sodium channel (unknown origin); design: species or system Homo sapiens
[9] = target: Voltage-gated inwardly rectifying potassium channel KCNH2 (Homo sapiens, UniProt Q12809); assay: Inhibition of human ERG channel assessed as reduction in K+ current by whole-cell voltage-clamp assay; type: toxicity
in vivo [10] = conditions: Wistar, rat, iv, 0.5 mg/kg
in vivo [11] = conditions: Wistar, rat, iv, 0.5 mg/kg; remark: listed apart in the source
in vivo [12] = conditions: Wistar, rat, po, 1 mg/kg
Rattus norvegicus [13] = assay: Anti-hypertensive effect in anaesthetized Wistar rat assessed as blood-pressure-lowering effect at 3 mg/kg, iv relative to control; type: functional

Rho-associated protein kinase 2, sequence (O75116 whole entry): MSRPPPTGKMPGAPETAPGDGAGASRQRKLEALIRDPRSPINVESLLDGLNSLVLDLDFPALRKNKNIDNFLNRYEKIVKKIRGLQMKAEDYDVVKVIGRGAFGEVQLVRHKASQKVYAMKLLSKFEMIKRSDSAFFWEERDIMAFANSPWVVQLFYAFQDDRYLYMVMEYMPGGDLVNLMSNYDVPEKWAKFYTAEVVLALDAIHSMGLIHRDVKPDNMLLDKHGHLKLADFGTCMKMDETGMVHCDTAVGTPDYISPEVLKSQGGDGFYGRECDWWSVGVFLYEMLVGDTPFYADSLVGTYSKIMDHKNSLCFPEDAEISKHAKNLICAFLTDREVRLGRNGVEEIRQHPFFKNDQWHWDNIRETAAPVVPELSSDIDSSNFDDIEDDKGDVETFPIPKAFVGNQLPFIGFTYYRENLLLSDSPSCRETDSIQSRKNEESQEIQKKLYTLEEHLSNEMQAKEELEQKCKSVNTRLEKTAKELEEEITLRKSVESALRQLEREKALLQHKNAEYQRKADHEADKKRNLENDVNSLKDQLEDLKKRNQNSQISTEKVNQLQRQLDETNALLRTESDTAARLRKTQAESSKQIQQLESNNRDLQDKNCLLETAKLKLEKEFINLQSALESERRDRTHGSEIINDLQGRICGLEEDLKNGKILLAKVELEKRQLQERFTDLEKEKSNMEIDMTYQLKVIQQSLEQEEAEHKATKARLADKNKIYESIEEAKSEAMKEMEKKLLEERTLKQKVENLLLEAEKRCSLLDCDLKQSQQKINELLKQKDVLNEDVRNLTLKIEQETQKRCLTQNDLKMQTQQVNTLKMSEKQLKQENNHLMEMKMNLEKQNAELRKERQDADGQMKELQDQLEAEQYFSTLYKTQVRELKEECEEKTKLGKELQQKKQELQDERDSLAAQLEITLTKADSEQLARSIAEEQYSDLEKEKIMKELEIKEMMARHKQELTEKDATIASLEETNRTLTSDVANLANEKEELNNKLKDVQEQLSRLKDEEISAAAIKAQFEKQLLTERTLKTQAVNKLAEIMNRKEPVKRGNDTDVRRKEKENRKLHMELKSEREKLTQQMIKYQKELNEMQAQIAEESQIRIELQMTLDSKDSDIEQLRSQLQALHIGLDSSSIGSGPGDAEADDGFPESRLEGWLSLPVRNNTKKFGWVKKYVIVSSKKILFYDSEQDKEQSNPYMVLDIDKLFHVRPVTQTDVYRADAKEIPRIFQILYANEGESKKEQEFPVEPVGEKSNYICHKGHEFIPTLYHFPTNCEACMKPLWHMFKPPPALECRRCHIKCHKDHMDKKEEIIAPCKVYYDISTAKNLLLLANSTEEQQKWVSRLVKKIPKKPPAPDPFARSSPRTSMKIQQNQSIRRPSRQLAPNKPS
Myosin light chain kinase, smooth muscle, sequence (Q15746 whole entry): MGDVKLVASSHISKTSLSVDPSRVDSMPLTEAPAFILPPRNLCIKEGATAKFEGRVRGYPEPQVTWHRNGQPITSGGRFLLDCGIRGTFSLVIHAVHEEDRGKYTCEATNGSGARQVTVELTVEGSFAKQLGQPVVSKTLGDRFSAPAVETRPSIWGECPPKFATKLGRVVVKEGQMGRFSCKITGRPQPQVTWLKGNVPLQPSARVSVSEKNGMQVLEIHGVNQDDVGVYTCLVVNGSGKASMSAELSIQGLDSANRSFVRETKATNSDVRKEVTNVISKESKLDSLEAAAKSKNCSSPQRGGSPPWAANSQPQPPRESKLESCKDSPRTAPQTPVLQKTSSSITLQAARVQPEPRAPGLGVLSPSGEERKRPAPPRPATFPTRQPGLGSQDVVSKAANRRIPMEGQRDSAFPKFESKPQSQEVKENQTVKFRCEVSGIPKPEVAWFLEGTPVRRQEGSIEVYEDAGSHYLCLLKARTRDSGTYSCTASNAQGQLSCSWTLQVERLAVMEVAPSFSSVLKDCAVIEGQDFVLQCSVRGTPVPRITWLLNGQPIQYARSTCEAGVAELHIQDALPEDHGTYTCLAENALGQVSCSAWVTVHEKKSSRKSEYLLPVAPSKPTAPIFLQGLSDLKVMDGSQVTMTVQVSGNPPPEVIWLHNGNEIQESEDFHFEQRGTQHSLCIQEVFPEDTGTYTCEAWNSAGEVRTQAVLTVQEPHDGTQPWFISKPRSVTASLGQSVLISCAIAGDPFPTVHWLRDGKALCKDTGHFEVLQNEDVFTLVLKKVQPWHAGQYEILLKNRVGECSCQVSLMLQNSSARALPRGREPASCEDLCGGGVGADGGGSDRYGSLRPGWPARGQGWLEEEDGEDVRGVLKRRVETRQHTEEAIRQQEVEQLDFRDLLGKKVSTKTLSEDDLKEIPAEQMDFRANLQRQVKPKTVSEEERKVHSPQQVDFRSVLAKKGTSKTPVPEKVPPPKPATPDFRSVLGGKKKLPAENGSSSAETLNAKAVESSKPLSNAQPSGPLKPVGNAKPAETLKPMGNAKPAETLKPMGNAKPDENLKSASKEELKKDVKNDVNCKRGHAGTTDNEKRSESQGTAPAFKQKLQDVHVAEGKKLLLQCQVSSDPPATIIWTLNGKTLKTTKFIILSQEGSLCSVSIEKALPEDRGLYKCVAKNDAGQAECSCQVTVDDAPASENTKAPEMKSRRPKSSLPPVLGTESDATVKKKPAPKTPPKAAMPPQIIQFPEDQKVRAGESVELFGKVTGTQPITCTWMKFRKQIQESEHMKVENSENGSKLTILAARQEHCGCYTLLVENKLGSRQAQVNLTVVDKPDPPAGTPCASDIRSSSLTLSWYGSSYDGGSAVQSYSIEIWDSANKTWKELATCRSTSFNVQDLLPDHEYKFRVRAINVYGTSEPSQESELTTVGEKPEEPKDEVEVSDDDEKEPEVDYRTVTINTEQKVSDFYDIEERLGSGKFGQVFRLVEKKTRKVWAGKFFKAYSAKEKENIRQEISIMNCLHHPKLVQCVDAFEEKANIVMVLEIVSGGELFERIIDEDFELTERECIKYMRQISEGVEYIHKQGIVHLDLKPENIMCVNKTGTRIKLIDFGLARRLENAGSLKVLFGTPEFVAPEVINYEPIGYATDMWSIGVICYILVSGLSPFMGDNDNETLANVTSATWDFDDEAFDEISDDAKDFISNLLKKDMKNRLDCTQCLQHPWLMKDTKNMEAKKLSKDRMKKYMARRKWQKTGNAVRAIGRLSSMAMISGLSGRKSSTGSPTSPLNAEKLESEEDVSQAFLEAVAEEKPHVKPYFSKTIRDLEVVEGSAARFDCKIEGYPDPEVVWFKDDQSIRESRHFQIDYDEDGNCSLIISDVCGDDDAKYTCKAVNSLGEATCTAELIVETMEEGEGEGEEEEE
RAF proto-oncogene serine/threonine-protein kinase, sequence (P04049 whole entry): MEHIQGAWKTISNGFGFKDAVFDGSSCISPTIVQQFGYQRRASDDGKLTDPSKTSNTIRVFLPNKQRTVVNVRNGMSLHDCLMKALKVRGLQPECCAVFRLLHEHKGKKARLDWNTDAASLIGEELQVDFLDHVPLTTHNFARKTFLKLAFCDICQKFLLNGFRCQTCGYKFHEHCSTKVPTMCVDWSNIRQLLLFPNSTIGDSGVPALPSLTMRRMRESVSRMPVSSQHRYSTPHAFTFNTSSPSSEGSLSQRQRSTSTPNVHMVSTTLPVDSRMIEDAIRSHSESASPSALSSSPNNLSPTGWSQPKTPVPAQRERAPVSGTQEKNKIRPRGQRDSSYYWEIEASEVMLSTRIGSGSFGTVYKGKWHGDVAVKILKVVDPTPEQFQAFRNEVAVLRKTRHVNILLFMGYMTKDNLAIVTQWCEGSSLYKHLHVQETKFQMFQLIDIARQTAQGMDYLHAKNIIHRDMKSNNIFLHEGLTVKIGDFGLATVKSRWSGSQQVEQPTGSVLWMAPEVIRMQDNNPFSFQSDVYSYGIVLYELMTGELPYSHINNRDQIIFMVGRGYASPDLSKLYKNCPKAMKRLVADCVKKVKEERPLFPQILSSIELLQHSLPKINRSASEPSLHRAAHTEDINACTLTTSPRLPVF
Voltage-gated inwardly rectifying potassium channel KCNH2, sequence (Q12809 whole entry): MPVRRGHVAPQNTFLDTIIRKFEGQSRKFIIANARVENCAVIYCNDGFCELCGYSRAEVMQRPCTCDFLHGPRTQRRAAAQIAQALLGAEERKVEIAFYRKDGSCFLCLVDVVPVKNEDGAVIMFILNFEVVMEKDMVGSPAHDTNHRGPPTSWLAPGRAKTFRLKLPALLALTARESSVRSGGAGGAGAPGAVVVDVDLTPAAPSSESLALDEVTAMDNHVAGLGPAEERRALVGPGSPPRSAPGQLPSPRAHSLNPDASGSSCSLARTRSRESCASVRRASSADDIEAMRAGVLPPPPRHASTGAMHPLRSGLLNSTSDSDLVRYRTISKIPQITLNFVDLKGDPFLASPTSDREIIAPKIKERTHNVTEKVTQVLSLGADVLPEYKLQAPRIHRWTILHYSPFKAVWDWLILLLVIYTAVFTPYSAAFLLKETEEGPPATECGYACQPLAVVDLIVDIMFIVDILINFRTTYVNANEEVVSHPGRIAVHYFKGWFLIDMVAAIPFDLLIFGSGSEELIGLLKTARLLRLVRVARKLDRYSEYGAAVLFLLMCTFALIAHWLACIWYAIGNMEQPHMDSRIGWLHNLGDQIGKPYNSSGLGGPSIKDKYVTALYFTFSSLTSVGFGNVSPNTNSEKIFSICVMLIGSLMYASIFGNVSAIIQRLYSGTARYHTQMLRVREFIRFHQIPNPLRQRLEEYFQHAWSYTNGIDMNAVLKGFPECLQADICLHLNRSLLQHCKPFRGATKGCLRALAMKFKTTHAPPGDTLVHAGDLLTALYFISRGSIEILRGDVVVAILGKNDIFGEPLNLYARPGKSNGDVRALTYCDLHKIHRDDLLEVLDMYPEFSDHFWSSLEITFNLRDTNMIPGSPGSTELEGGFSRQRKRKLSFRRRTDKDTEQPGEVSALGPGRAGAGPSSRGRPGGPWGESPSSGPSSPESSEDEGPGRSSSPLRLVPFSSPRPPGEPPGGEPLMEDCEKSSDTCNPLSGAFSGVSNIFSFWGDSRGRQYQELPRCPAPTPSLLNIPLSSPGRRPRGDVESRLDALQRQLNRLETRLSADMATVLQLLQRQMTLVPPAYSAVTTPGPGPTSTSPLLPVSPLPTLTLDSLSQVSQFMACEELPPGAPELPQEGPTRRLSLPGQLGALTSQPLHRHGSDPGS

SMILES | IC50 [1] [µM] | IC50 (Saphenous artery) [µM] | other results
Nc1nccc(Nc2ccc(Oc3ccnc4[nH]ccc34)c(F)c2)n1 | 0.017 | 1.5 | 
Cc1c[nH]c2nccc(Oc3c(F)cc(Nc4cc(Cl)nc(N)n4)cc3F)c12 [BAY-549] |  | 0.065 | Activity (Rattus norvegicus [3]): 35 mmHg; IC50 [4]: 7.4 µM; IC50 [5]: 1 µM; IC50 [6]: 1 µM; IC50 [7]: 6.7 µM; IC50 [8]: 6.8 µM; inhibition (INH) [9]: Not Active; clearance (in vivo [10]): 28.3 mL/min/kg; half-life (in vivo [11]): 72 min; bioavailability (in vivo [12]): 48%
Cc1cc(Nc2ccc(Oc3ccnc4[nH]ccc34)c(F)c2)nc(N)n1 | 0.011 | 1.7 | 
Nc1nc(Nc2ccc(Oc3ccnc4[nH]ncc34)c(F)c2)cc(-c2ccncc2)n1 | > 3 |  | 
Nc1nc(Nc2ccc(Oc3ccnc4[nH]ccc34)c(F)c2)cc(-c2ccncc2)n1 |  | 0.27 | Activity (Rattus norvegicus [13]): 65 mmHg; clearance (in vivo [10]): 88.3 mL/min/kg; half-life (in vivo [11]): 18 min; bioavailability (in vivo [12]): 18%
Nc1nc(Nc2ccc(Oc3cccc4[nH]ncc34)c(F)c2)cc(-c2ccncc2)n1 | 0.38 |  | 
Cc1c[nH]c2nccc(Oc3ccc(Nc4ccnc(N)n4)cc3F)c12 | 0.004 | 0.084 | clearance (in vivo [10]): 35 mL/min/kg; half-life (in vivo [11]): 30 min
Nc1nc(Nc2ccc(Oc3ccnc4[nH]ccc34)c(F)c2)cc(N2CCCC2)n1 | 0.016 | 0.94 | 
Nc1nc(Nc2ccc(Sc3ccncc3)c(F)c2)cc(-c2ccncc2)n1 | 0.011 | 0.5 | 
Cc1c[nH]c2nccc(Oc3ccc(Nc4cc(Cl)nc(N)n4)cc3F)c12 |  | 0.1 | 
Cc1cc(Nc2ccc(Sc3ccncc3)c(F)c2)nc(N)n1 | 0.09 |  | 
Nc1nc(Nc2ccc(Oc3ccnc4[nH]ccc34)c(F)c2)cc(C2CCCNC2)n1 (centres undefined) |  | 0.23 | 
Nc1nc(Cl)cc(Nc2ccc(Oc3ccnc4[nH]ccc34)c(F)c2)n1 | 0.009 | 1.1 | 
Cc1n[nH]c2cccc(Oc3ccc(Nc4cc(-c5ccncc5)nc(N)n4)cc3F)c12 |  | 6.8 | 
Cc1cc(Nc2ccc(Sc3ccncc3)cc2)nc(N)n1 | 0.8 |  | 
Nc1nc(Nc2ccc(Oc3ccnc4[nH]ccc34)c(F)c2)cc(-c2cccnc2)n1 | 0.01 | 0.37 | 
Nc1nc(Nc2ccc(Oc3cccc4[nH]ccc34)c(F)c2)cc(-c2ccncc2)n1 | > 3 |  | 
Nc1nc(Nc2ccc(Oc3cccc4cnccc34)c(F)c2)cc(-c2ccncc2)n1 | 0.2 |  | 

Continued, in another order:

IC50 [1] [µM] | IC50 (Saphenous artery) [µM] | SMILES | other results
0.002 | 0.082 | Nc1nc(Nc2cc(F)c(Oc3ccnc4[nH]cc(Cl)c34)c(F)c2)cc(C(F)(F)F)n1 | solubility [2]: Insoluble
0.006 | 0.41 | Nc1nc(Nc2ccc(Oc3ccnc4[nH]ccc34)c(F)c2)cc(N2CCNCC2)n1 | 
0.007 | 0.46 | Nc1nc(Nc2ccc(Oc3ccnc4[nH]ccc34)c(F)c2)cc(-c2ccccn2)n1 | 
0.003 | 0.089 | Cc1c[nH]c2nccc(Oc3ccc(Nc4cc(-c5ccncc5)nc(N)n4)cc3F)c12 | Activity (Rattus norvegicus [13]): 70 mmHg
0.007 | 0.71 | Nc1nc(Nc2ccc(Oc3ccnc4[nH]ccc34)c(F)c2)cc(C(F)(F)F)n1 | 
0.0009 | 0.02 | N#Cc1c[nH]c2nccc(Oc3c(F)cc(Nc4ccnc(N)n4)cc3F)c12 | solubility [2]: Insoluble
0.002 | 0.57 | Nc1nc(Nc2ccc(Oc3ccnc4[nH]ccc34)c(F)c2)cc(C2CCNCC2)n1 | 
0.002 | 0.056 | Cc1c[nH]c2nccc(Oc3c(F)cc(Nc4ccnc(N)n4)cc3F)c12 | clearance (in vivo [10]): 26.7 mL/min/kg; half-life (in vivo [11]): 54 min
0.008 | 1.2 | CCc1c[nH]c2nccc(Oc3ccc(Nc4cc(-c5ccncc5)nc(N)n4)cc3F)c12 | 
